The source of these data is patent US12692232B2, “Indole carboxamide compound, preparation therefor and use thereof” (NANJING RUISHUNING MEDICAL TECHNOLOGY CO., LTD., priority 2021, dated 2026).

For the experiment, the system named is mouse model of renal fibrosis (UUO). The experiment can be described thus: Mouse model of renal fibrosis (unilateral ureteral obstruction, UUO). Type of experiment: in vivo. As to conditions: for urea nitrogen level: model 17.56±0.48; for serum creatinine level: model 32.48±0.87; for urine protein level: model 888.5±264.8; for extent of renal fibrosis, pathological staining (H&E, Masson, Sirius red): FIG. 2, control compound 25 mg/kg, losartan 50 mg/kg; for body weight compared with the UUO model group / kidney weight compared with the UUO model group: gavage once daily 14 days, not statistically different (P>0.05). As for the experimental part: The therapeutic effect of the compounds of the present invention (as exemplified by Compound 1-1 obtained in Example 1) on renal fibrosis was determined using a mouse model of renal fibrosis. The method was as follows:
Grouping of animals: male C57BL/6J mice aged 8 weeks were given adaptive feeding for 3 days and grouped into a sham operation group, a sham operation-treatment group, a Unilateral ureteral obstruction (UUO) model group, a low-dose (10 mg/kg) treatment group, a medium-dose (25 mg/kg) treatment group, a high-dose (50 mg/kg) treatment group, a medium-dose (25 mg/kg) treatment group of indole analogue 3-[(1-methyl-1H-indole-2-carbonyl)amino]propionic acid disclosed in CN2019107285315, and a positive control group of losartan (50 mg/kg), with 10 animals in each group. Mice in the model and the treatment groups were anesthetized by intraperitoneal injection of 0.5% sodium pentobarbital at a dose of 0.1 mL/10 g. The mice were fixed on the operating table and cut open in layers from the right side of the mid-abdomen to locate the left kidney, and the ends of the ureter were ligated, while the ureter was cut off between the two ligations; the sham operation group was operated as described above and the ligations were not performed. Post-operative organs were repositioned, sutured, and sterilized with iodophor after suturing was completed. Immediately after operation, the drug was administered by gavage once daily for 14 days. Urine sample collection: animals were placed in separate metabolic cages by group on days 0, 5, 10 and 14 after modelling, without food or water, and urine samples were collected from each group of mice.
The protein levels in urine were determined using Coomassie brilliant blue (CBB) method by using urine protein quantitative test kit (Nanjing Jiancheng Bioengineering Institute). CBB working solution was prepared according to the kit instructions. 0.05 mL of each urine sample was mixed with 3 mL of CBB working solution, the mixture was left to stand for 5 min, and the absorbance value of each sample was determined at 595 nm. The protein levels in each group of urine samples were calculated according to the protein standardization formula: urine protein levels (mg/L)=(measured OD−blank OD)/(standard OD−blank OD)×563 mg/L.
Collection of serum sample: orbital blood from each mouse was collected in an EP tube, placed at 37° C. for 20 minutes, and centrifuged to obtain the upper layer of serum.
Collection of plasma sample: orbital blood from each mouse was collected in an anticoagulation tube, mixed well and stored at 4° C. for later use.
Determination of creatinine levels in urine and serum by the picric acid colorimetric method: creatinine levels in urine and serum were determined by using the creatinine test kit (Nanjing Jiancheng Bioengineering Institute). According to the kit instructions, 1.5 mL of urine sample or serum sample and 0.5 mL of picric acid solution, 0.5 mL of 0.5 mol/L sodium hydroxide solution were mixed, heated in water bath at 37° C. for 10 minutes. The absorbance value of each sample was determined using a UV spectrophotometer at a wavelength of 510 nm. Creatinine levels in samples of each group were calculated according to the formula: creatinine level (μmol/L) in serum or urine=(measured OD value−blank OD value)/(standard OD value−blank OD value)×50 μmol/L×(dilution ratio 201).
Determination of urea nitrogen level in plasma by diacetyl monoxime method: urea nitrogen level was determined was determined by using blood urea nitrogen (BUN) test kit (Nanjing Jiancheng Bioengineering Institute). According to the kit instructions, 0.05 mL of anticoagulated plasma samples were mixed with 1 mL of oxime solution and 1 mL of acid working solution, and the mixtures were placed in a boiling water bath for 15 min. A UV-visible spectrophotometer was used to determine the absorbance values of each tube at a wavelength of 520 nm. […]

Turning to `Cn1c(C(=O)NCCC(=O)O)cc2ccccc21` [3-[(1-methyl-1H-indole-2-carbonyl)amino]propionic acid, reference compound], the “extent of renal fibrosis, pathological staining (H&E, Masson, Sirius red)” value was “shows less improvement in fibrotic tissue proliferation and renal tubular lumen dilation”; the “body weight compared with the UUO model group” value was “slight increase in body weight”; the “kidney weight compared with the UUO model group” value was “slight decrease in kidney weight”. For the same compound, under “25 mg/kg gavage 14 days”, the “creatinine level reduced compared with the model group” value (shortened to “creatinine level reduced”) is given as 18.3%, the “urea nitrogen level reduced compared with the model group” value (shortened to “urea nitrogen level reduced”) came to 20.6%, the “urine protein level reduced compared with the model group” value (from here on “urine protein level reduced”) turned out to be 30.1% and the urea nitrogen level was determined as 13.94 ± 0.42 mmol/L. Where the note is “25 mg/kg gavage 14 days”, the serum creatinine level came out at 26.52 ± 0.86 µmol/L and the urine protein level stood at 621 ± 81.3 mg/L.

Turning to `CC(=O)OCCCNC(=O)c1c(C=O)c2ccccc2n1C` [compound 1-1, propyl 3-[(3-formyl-1-methyl-1H-indole-2-carbonyl)amino]acetate], the “extent of renal fibrosis, pathological staining (H&E, Masson, Sirius red)” value is “significantly attenuates tubular lumen dilatation and glomerular atrophy in a dose-dependent manner”; the “body weight compared with the UUO model group” value was “slight increase in body weight”; the “kidney weight compared with the UUO model group” value is given as “slight decrease in kidney weight”. For the same compound, under “10 mg/kg gavage 14 days”, the “creatinine level reduced” value turned out to be 17.2%, the “urea nitrogen level reduced” value came to 24.7%, the “urine protein level reduced” value worked out at 27.4% and the urea nitrogen level is 13.23 ± 0.62 mmol/L. For the setting “10 mg/kg gavage 14 days”, this compound displayed a serum creatinine level of 26.88 ± 0.86 µmol/L and a urine protein level of 645 ± 165 mg/L. Besides, for the setting “25 mg/kg gavage 14 days”, the “creatinine level reduced” value amounted to 20.7%, the “urea nitrogen level reduced” value turned out to be 30.0%, the “urine protein level reduced” value came to 37.7% and the urea nitrogen level turned out to be 12.30 ± 0.33 mmol/L. For the setting “25 mg/kg gavage 14 days”, this compound displayed a serum creatinine level of 25.76 ± 1.31 µmol/L and a urine protein level of 554 ± 143 mg/L. Moreover, under “50 mg/kg gavage 14 days”, the “creatinine level reduced” value turned out to be 27.6%, the “urea nitrogen level reduced” value is given as 37.7%, the “urine protein level reduced” value was 52.6% and the urea nitrogen level was 10.94 ± 0.42 mmol/L. In addition, under “50 mg/kg gavage 14 days”, the serum creatinine level is 23.52 ± 0.86 µmol/L and the urine protein level turned out to be 421 ± 82.3 mg/L.
